Where “and” joins values, the source holds several entries; their conditions need not be identical. Identical values can stand only once.
Assays:
Mus sp. = organism: Mus sp.; experiment: Test ability to block the tonic-clonic component of seizures induced by metrazole in mice.; format: functional
[1] = molecular target: GABA-A receptor; anion channel; experiment: Binding affinity against the BZD site of the Gamma-aminobutyric acid A receptor in rat cerebral cortex using radioligand ([3H]flunitrazepam) assay in the absence of Gamma-aminobutyric acid; format: tissue-based
[2] = molecular target: GABA-A receptor; anion channel; experiment: Binding affinity against the BZD site of the Gamma-aminobutyric acid A receptor in rat cerebral cortex using radioligand ([3H]flunitrazepam) assay in the presence of Gamma-aminobutyric acid; format: tissue-based
[3] = molecular target: T1, GABA-A receptor; anion channel (Rattus norvegicus) (UniProt O09028+P15431+P18506+P18508+P19969+P20236+P23574+P23576+P28471+P28473+P30191+P62813+P63079+P63138+Q91ZM7+Q9ES14); experiment: Ratio of IC50 (no GABA) to IC50 (GABA) was measured as GABA Shift (GS); format: protein-complex assay
[4] = molecular target: T1, GABA-A receptor; anion channel (Rattus norvegicus); experiment: Relative binding in the presence and absence of GABA, (IC50-GABA /IC50+GABA); format: protein-complex assay
Rattus norvegicus [5] = organism: Rattus norvegicus; experiment: animal or person; details: read-out: MED
Rattus norvegicus [6] = organism: Rattus norvegicus; experiment: animal or person; details: read-out: MED; remark: listed apart in the source
Rattus norvegicus [7] = organism: Rattus norvegicus; experiment: The compound was tested for its ability to release (i.e., disinhibit) behavior that had been suppressed by punishment in rats (vogel conflict test).; format: functional; details: read-out: MED
[8] = Tested for its interaction with ethanol by its ability to potentiate the effect of ethanol on sleep.; format: functional; details: read-out: MED
Rattus norvegicus [9] = organism: Rattus norvegicus; experiment: Compound was tested for its ability to release (i.e., disinhibit) behavior that had been suppressed by punishment in rats (vogel conflict test).; format: functional; details: read-out: MED
[10] = Tested for skeletal muscle relaxant activity using horizontal screen assay.; format: functional
Mus musculus = organism: Mus musculus; experiment: Compound was tested for its ability to block the tonic-clonic component of seizures induced by metrazole in mice; Range = 10-30; format: functional

Row | SMILES | ED50 (Mus sp.; Mus sp., read-out: ED50) [mg/kg] | IC50 [1] [nM] | IC50 [2] [nM] | GABA shift [3] | further results
1 | O=C(Nc1ccncc1)c1c(O)ccn2c1nc1ccccc12 | > 10 | 260 | 150 | 1.7 | –
2 | CN(C)c1ccc(NC(=O)C2=C3N(C)c4ccccc4N3CCC2=O)cc1 | – | 29 | 16 | – | GABA shift [4]: 1.8
3 | O=C(Nc1ccncc1Cl)C1=C(O)CCn2c1nc1ccccc12 | – | 220 | 100 | 2.2 | –
4 | O=C(Nc1cccnc1)C1=C(O)CCn2c1nc1ccccc12 | – | 51 | 48 | 1.1 | –
5 | Nc1ccccc1NC(=O)C1=C(O)CCn2c1nc1ccccc12 | – | 50 | 33 | – | GABA shift [4]: 1.5
6 | O=C(Nc1ccnc(Cl)c1)C1=C(O)CCn2c1nc1ccccc12 | – | 68 | 65 | 1.1 | ED50 (Mus sp.): 3.7 mg/kg and 10 mg/kg
7 | O=C(Nc1ccncn1)C1=C(O)CCn2c1nc1ccccc12 | > 10 | 480 | 370 | 1.3 | ED50 (Mus sp.): 10 mg/kg
8 | C[n+]1ccc(NC(=O)C2=C(O)CCn3c2nc2ccccc23)cc1 | > 10 | 6300 | 3100 | 2 | –
9 | O=C(Nc1ccc(O)cc1)C1=C(O)CCn2c1nc1ccccc12 | – | 46 | 31 | – | ED50 (Mus sp.): >30 mg/kg and 10 mg/kg; GABA shift [4]: 1.5
10 | O=C(Nc1ccncc1F)C1=C(O)CCn2c1nc1ccccc12 | – | 53 | 20 | 2.6 | –
11 | CN1C(=O)CN=C(c2ccccc2)c2cc(Cl)ccc21 [DIAZEPAM] | – | – | – | – | ED50 (Mus sp.): 0.11 mg/kg and 0.3 mg/kg; minimal effective dose (Rattus norvegicus [5]): 5 mg/kg; minimal effective dose (Rattus norvegicus [6]): 5 mg/kg
12 | O=C(NCc1ccncc1)C1=C(O)CCn2c1nc1ccccc12 | > 10 | 65 | 69 | 0.9 | –
13 | O=C(Nc1ccccn1)C1=C(O)CCn2c1nc1ccccc12 | 11.2 | 59 | 36 | 1.7 | ED50 (Mus sp.): 10 mg/kg
14 | CN(C)c1ccc(NC(=O)C2=C(O)CCn3c2nc2ccccc23)c(F)c1 | – | 120 | 87 | 1.4 | –
15 | CN(C)c1ccccc1NC(=O)C1=C(O)CCn2c1nc1ccccc12 | – | 10000 | – | – | ED50 (Mus sp.): 4.9 mg/kg and 10 mg/kg
16 | Nc1ccc(NC(=O)C2=C(O)CCn3c2nc2ccccc23)cc1 | – | 13000 | 3400 | 3.8 | –
17 | CCN1C2=C(C(=O)Nc3ccncc3)C(=O)CCN2c2ccccc21 | – | 80 | 27 | 3 | minimal effective dose (Rattus norvegicus [7]): 3 mg/kg; minimal effective dose [8]: 10 mg/kg; minimal effective dose (Rattus norvegicus [9]): 3 mg/kg
18 | Cc1cc(N(C)C)ccc1NC(=O)C1=C(O)CCn2c1nc1ccccc12 | – | 4000 | 1500 | 2.7 | –
19 | O=C(Nc1cnccn1)C1=C(O)CCn2c1nc1ccccc12 | > 10 | 360 | 400 | 0.9 | –
20 | Cc1cnccc1NC(=O)C1=C(O)CCn2c1nc1ccccc12 | > 10 | 7100 | 12000 | 0.6 | –
21 | O=C(Nc1ccc(C(=O)O)cc1)C1=C(O)CCn2c1nc1ccccc12 | – | > 10000 | > 10000 | – | ED50 (Mus sp.): >30 mg/kg and 10 mg/kg
22 | O=C(Nc1ccncc1)C1=C(O)CCn2c1nc1ccccc12 | – | 160 | 78 | 2.1 | ED50 (Mus sp.): 3.1 mg/kg and 7.8 mg/kg; minimal effective dose (Rattus norvegicus [7]): 3 mg/kg; minimal effective dose [8]: > 60 mg/kg; ED50 ([10]; read-out: ED50): > 30 mg/kg; minimal effective dose (Rattus norvegicus [9]): 10 mg/kg
23 | CN(C)c1ccc(NC(=O)C2=C(O)CCn3c2nc2ccccc23)cc1 | – | 270 | 210 | 1.2 | minimal effective dose (Rattus norvegicus [7]): 3 mg/kg; ED50 [10]: >30 mg/kg and 10 mg/kg; minimal effective dose (Rattus norvegicus [9]): 10 mg/kg
24 | CN(C)c1cccc(NC(=O)C2=C(O)CCn3c2nc2ccccc23)c1 | – | 37 | 25 | 1.5 | –
25 | O=C(Nc1ncccn1)C1=C(O)CCn2c1nc1ccccc12 | – | 54 | 50 | 1.1 | –
26 | O=C1CCN2C(=C1C(=O)Nc1ccccc1)Nc1ccccc12 | 5.2 | – | – | – | ED50 (Mus musculus): 10 mg/kg; minimal effective dose (Rattus norvegicus [7]): 10 mg/kg; GABA shift [4]: 1.5; ED50 [10]: >30 mg/kg and 10 mg/kg; minimal effective dose (Rattus norvegicus [9]): > 10 mg/kg
27 | O=C(NCc1cccnc1)C1=C(O)CCn2c1nc1ccccc12 | > 10 | 150 | 140 | 1.1 | –

Reference: ChEMBL document CHEMBL1149939, “Potential anxiolytic agents. 2. Improvement of oral efficacy for the pyrido[1,2-a]benzimidazole (PBI) class of GABA-A receptor modulators” (Bioorg Med Chem Lett, 1996)
